Measured values from the supplement of paper PMC5844555.

Key:
Test in all cases: 3' UTR reporter interaction score (median-centred robust z-score of log2 firefly/Renilla activity); higher = less repression of the 3' UTR reporter
Settings in all cases: HEK293T; 48 h
BRCA2 = system: BRCA2
Outline: (§1)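 In at least two independent screens, HEK293T cells in 96-well plates (10,000/well) were co-transfected with DharmaFECT Duo using 100 ng firefly luc2P reporter with the gene's 3' UTR, 20 ng Renilla pRL-TK control and 2.5 pmol miRNA mimic, and dual-luciferase activities were read at 48 h. The interaction score, averaged across screens, is the per-plate robust z-score (median, median absolute deviation) of the log firefly/Renilla ratio, median-centred per miRNA, with more negative indicating interaction.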

EZH2 = system: EZH2
Outline: as §1

FBXW7 = system: FBXW7
Outline: as §1

HRAS = system: HRAS
Outline: as §1

MYB = system: MYB
Outline: as §1

MYCN = system: MYCN
Outline: as §1

MYC = system: MYC
Outline: as §1

MYT1L = system: MYT1L
Outline: as §1

NOTCH1 = system: NOTCH1
Outline: as §1

PHF6 = system: PHF6
Outline: as §1

PHOX2B = system: PHOX2B
Outline: as §1

RB1 = system: RB1
Outline: as §1

TP53 = system: TP53
Outline: as §1

ZEB2 = system: ZEB2
Outline: as §1

| Sequence | 3' UTR reporter interaction score (BRCA2) | 3' UTR reporter interaction score (EZH2) | 3' UTR reporter interaction score (FBXW7) | 3' UTR reporter interaction score (HRAS) | 3' UTR reporter interaction score (MYB) | 3' UTR reporter interaction score (MYCN) | 3' UTR reporter interaction score (MYC) | 3' UTR reporter interaction score (MYT1L) | 3' UTR reporter interaction score (NOTCH1) | 3' UTR reporter interaction score (PHF6) | 3' UTR reporter interaction score (PHOX2B) | 3' UTR reporter interaction score (RB1) | 3' UTR reporter interaction score (TP53) | 3' UTR reporter interaction score (ZEB2) |
| --- | --- | --- | --- | --- | --- | --- | --- | --- | --- | --- | --- | --- | --- | --- |
| UAAGGUGCAUCUAGUGCAGAUA | -0.222 | 0.286 | 0.264 | -0.481 | 0.537 | -0.0167 | 0.199 | 0.136 | 0.283 | -0.951 | -0.0776 | -0.171 | 0.495 | -0.0823 |
| UAAGGUGCAUCUAGUGCAGUUA | -0.228 | 0.311 | -0.313 | -0.399 | 0.34 | 0.0551 | 0.863 | -0.221 | 0.564 | -1.71 | 0.37 | -0.473 | 0.488 | -0.449 |
| UAAGUGCUUCCAUGUUUCAGUGG | 0.202 | -0.665 | 0.421 | 0.114 | -0.991 | 0.305 | -0.0462 | -1.46 | 0.788 | 0.57 | -0.0319 | 0.571 | -0.245 | 0.969 |
| UAAGUGCUUCCAUGUUUGAGUGU | -0.334 | -0.327 | 0.795 | 0.22 | -0.941 | 0.678 | -0.0168 | -0.74 | 0.935 | -0.0188 | 0.566 | 0.167 | -0.124 | 1.47 |
| UAAGUGCUUCCAUGUUUUAGUAG | -0.649 | -0.765 | 0.557 | 0.314 | -0.833 | 0.56 | -0.0722 | -1.12 | 1.36 | 0.487 | -0.86 | 0.351 | 0.0485 | 1.24 |
| UAAGUGCUUCCAUGUUUUGGUGA | -0.208 | -0.457 | 0.567 | -0.478 | -1.01 | 0.317 | -0.0521 | -1.44 | 1.18 | 0.733 | 0.453 | 1.03 | -0.0784 | 1.55 |
| UAAUACUGCCGGGUAAUGAUGG | -0.155 | 0.453 | -0.707 | -0.939 | -1.24 | -0.263 | 0.778 | 1.25 | -0.992 | 0.321 | -0.44 | 0.254 | 0.205 | -2.81 |
| UAAUACUGUCUGGUAAAACCGU | -0.165 | 0.716 | -1.04 | 0.264 | -2.29 | 0.575 | 0.8 | 0.747 | -1.39 | 0.422 | -0.137 | 0.612 | 0.0543 | -6.85 |
| UAAUCUCAGCUGGCAACUGUG | 1.06 | -0.0854 | -0.0147 | 0.474 | -0.952 | 0.412 | 0.197 | -0.796 | -0.148 | 0.579 | 0.207 | -0.947 | -0.775 | 0.502 |
| UAAUGCCCCUAAAAAUCCUUAU | 1.14 | 0.868 | 1.16 | -0.275 | -1.05 | -0.732 | 0.136 | 0.18 | -0.347 | 2.31 | 0.54 | -0.537 | -0.124 | -2.81 |
| UACAGUACUGUGAUAACUGAAG | 0.0293 | -3.4 | -3.92 | 0.843 | 0.694 | -3.49 | 0.128 | 0.686 | -1.33 | -0.261 | 0.00398 | 0.982 | -0.59 | -0.268 |
| UACAGUAGUCUGCACAUUGGUU | 0.551 | -0.827 | 0.408 | -0.926 | -0.118 | 0.292 | 0.385 | 3.26 | -0.605 | -0.669 | -0.571 | 2 | -1.16 | 1.83 |
| UACAGUAUAGAUGAUGUACUAG | -0.483 | 0.0925 | -1.17 | -0.991 | 1.2 | -0.388 | -0.27 | 0.926 | 0.141 | 0.845 | 1.45 | 0.00103 | 0.564 | 0.857 |
| UACCCAUUGCAUAUCGGAGUUG | 1.65 | -0.072 | 1.03 | 0.189 | -1.15 | -0.434 | 1.45 | -2.74 | 0.783 | -2.43 | -0.552 | 0.632 | 0.729 | -2.65 |
| UACCCUGUAGAACCGAAUUUGU | 0.189 | 1.07 | -0.174 | 0.849 | 0.245 | -0.116 | 0.546 | -2.07 | -1.66 | 0.333 | -0.86 | -0.148 | -0.546 | -1.8 |
| UACCCUGUAGAUCCGAAUUUGUG | 0.0748 | 1.17 | -0.445 | 1.04 | 0.0301 | -0.296 | 0.449 | -2.08 | -2.62 | -0.356 | -1.36 | 0.397 | -0.88 | -1.18 |
| UACUGCAUCAGGAACUGAUUGGAU | -0.471 | -1.49 | 0.0205 | 0.0273 | -0.822 | 0.685 | 0.358 | 1.06 | 0.0506 | -2.18 | 0.00207 | 1.24 | -0.963 | -0.414 |
| UAGAUAAAAUAUUGGUACCUG | 0.0137 | 0.412 | 0.354 | 0.836 | -0.19 | 0.037 | 0.271 | -0.105 | -0.186 | -0.242 | -1.45 | -0.00826 | 0.578 | -0.296 |
| UAGCACCAUCUGAAAUCGGUU | 0.502 | 0.717 | -3.02 | 0.469 | 0.702 | -3.08 | 0.338 | -0.146 | 0.229 | -0.0911 | -0.351 | -0.626 | -0.0665 | -0.458 |
